Assay results: US9272040B2, “5-CNAC as oral delivery agent for parathyroid hormone fragments” (Novartis AG, priority 2001, dated 2016)

Experiment: Primate administration: plasma hPTH by radioimmunoassay after oral capsule
Type: in vivo
Conditions: Table 2 versus Table 1, Rhesus monkey
Protocol: The capsules prepared in Example 1 are administered to Rhesus monkeys as follows: four monkeys in a group are each dosed with one capsule prepared as in Example 1 as follows:
The Rhesus monkeys fast overnight prior to dosing and are restrained in chairs fully conscious, for the duration of the study period. The capsules are orally administered via a gavage tube followed by 10 ml of water.
Blood samples are collected at 0, 0.25, 0.5, 0.75, 1, 1.5, 2, 3, 4, 5, and 6 hours after administration. Plasma hPTH levels are determined by radioimmunoassay. The primate plasma PTH results from each group of monkeys are averaged and the maximum mean plasma calculated.

SMILES: O=C(O)CCCCCCCNC(=O)c1cc(Cl)ccc1O [Capsule 5-CNAC, N-(5-chlorosalicyloyl)-8-aminocaprylic acid]
- effect of carrier on oral delivery of the hPTH fragment: significantly facilitates the oral delivery of the hPTH fragment
